{"source": "paper PMC5642495", "about": "“Characterization of a novel androgen receptor (AR) coregulator RIPK1 and related chemicals that suppress AR-mediated prostate cancer growth via peptide and chemical screening” (Oncotarget, 2017)", "key": {"AR transactivation": {"system": "AR transactivation", "experiment": "AR transcriptional reporter assay in PC-3 cells", "format": "cell-based, human", "conditions": "10 nM DHT", "description": "Figure 1 Associations between RIPK1 and AR (A) Co-IP of Flag-RIPK1 with Flag-AR in the 293T cell line. Extracts of 293T cells overexpressing 3xFlag-RIPK1 and 3xFlag-AR were treated with […]. IP was performed using anti-AR (C19) or anti-RIPK1 antibody or normal rabbit serum (negative control), followed by immunoblotting (IB) with antibodies against AR or RIPK1. (B) RIPK1 interacts with full-length AR and the N- and C-terminal regions of AR in GST pull-down assays. Mutation of the FxxFY motif to AxxAA in RIPK1 reduced interactions with AR. […] (C) Transfection of PC-3 prostate cancer cells with AR and RIPK1. PC-3 cells in 24-well plates were co-transfected with 300 ng MMTV-LUC reporter plasmid and 0.5 ng SV40-Renilla luciferase plasmid, together with 100 ng pCMV-Flag-AR and 100, 300 or 500 ng p3xFLAG- RIPK1. The total plasmid DNA content was made up to 1 µg with pCMV. After 16 h, ethanol or 10 nM DHT was added and cells incubated for an additional 16 h. DHT was used as the AR ligand while ARA70N served as the positive control. Relative LUC activity was determined using the dual luciferase system. (D) RIPK1 functional domain mapping in relation to AR transactivation. PC-3 cells were transfected with pCMV-Flag-AR and RIPK1 expression plasmid, P3xFlag-RIPK1 full-length, P3xFlag-RIPK1-(240-671) or P3xflag-RIPK1-(1-558) plasmid, and cultured overnight. Ethanol or 10 nM DHT was added and cells incubated for an additional 16 h. Relative LUC activity was determined using the dual luciferase system. (E) RIPK1 is expressed in benign prostatic hyperplasia tissue, displaying strong positivity (3+, > 90%) in the gland area but weak (1+, 50%) staining in the background. (F) Human prostate cancer tissues were immunostained for RIPK1. “T” indicates the tumor area (right side) and “Non-T” the non-tumor area (left side). RIPK1 expression was weak (1+, 80%) in the cancer area but remained strong (3+, 70%) in the peri-cancer area. The figures are representative of three benign prostatic gland hyperplasia and cancer tissues.\nThe PC-3 prostate cancer cell line was used for experiments. […]"}, "AR N-C interaction": {"target": "T1, AR N-C interaction (Homo sapiens, UniProt P10275)", "T1 construct": "pCDNA3-hAR-C (residues 556–919); expressed in transfected cells; host or cells: PC-3", "T1 sequence (P10275 556-919)": "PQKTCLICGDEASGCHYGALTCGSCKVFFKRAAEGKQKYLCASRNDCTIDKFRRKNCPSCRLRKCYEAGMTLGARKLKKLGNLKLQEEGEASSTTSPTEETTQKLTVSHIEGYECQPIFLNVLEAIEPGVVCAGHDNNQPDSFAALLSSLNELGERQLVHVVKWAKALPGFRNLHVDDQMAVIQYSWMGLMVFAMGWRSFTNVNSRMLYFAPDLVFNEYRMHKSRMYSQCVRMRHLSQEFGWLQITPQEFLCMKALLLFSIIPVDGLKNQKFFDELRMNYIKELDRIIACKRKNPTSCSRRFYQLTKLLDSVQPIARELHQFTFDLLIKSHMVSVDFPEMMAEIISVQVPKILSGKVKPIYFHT", "experiment": "AR N-C interaction reporter assay in PC-3 cells", "format": "cell-based", "conditions": "10 nM DHT, Figure 6A", "description": "Figure 6 Mechanism underlying suppression of AR-related functions by oxadiazole derivatives (A–C) Transcriptional activity in reporter assays. PC-3 cells in 24-well plates were transfected as indicated below. After incubation for 16 h, cells were treated with ethanol, 10 nM DHT, or 0.01–10 μM HWC-489 or LHJ-647 for an additional 16 h. Luciferase activity in cell lysates was determined and normalized to protein concentrations. Relative luciferase activity was calculated using the luciferase reporter assay system. (A) PC-3 cells were co-transfected with 350 ng pCDNA3-flag-hAR-N (residues 1–506), 350 ng pCDNA3-hAR-C (residues 556–919), and 300 ng MMTV-Luc plasmids. (B) PC-3 cells were co-transfected with 350 ng GAL4-DBD-3-18, 350 ng pCMX-VP16-AR, and 300 ng pG5-Luc plasmids. (C) PC-3 cells were transfected with 350 ng GAL4-DBD-ARA54C, 350 ng VP16-AR, and 300 ng pG5-Luc plasmids. (D) LHJ-647 promotes AR protein degradation."}}}
{"smiles": "Cc1ccc(-c2nnc(Nc3ccccc3)o2)cc1", "note": "[HWC-489]", "values": [{"measurement": "effect on AR transactivation in combination with enzalutamide", "setting": "AR transactivation; 1 µM enzalutamide plus 0.1 µM HWC-489 (lane 14 vs. 4)", "value": "additive effect"}, {"measurement": "concentration range of significant suppression of AR N-C interaction", "setting": "AR N-C interaction", "value": "0.1 to 1", "unit": "µM"}]}
{"smiles": "COc1cccc(Nc2nnc(-c3ccc(N(C)C)cc3)o2)c1", "note": "[LHJ-647]", "values": [{"measurement": "effect on AR transactivation in combination with enzalutamide", "setting": "AR transactivation; 1 µM enzalutamide plus 1 µM LHJ-647 (lane 9 vs. 4)", "value": "additive effect"}, {"measurement": "concentration range of significant suppression of AR N-C interaction", "setting": "AR N-C interaction", "value": "0.1 to 1", "unit": "µM"}]}
